The record followed here is patent US9573978B2, “Cyclosporin derivatives for the treatment and prevention of a viral infection” (priority 2010, dated 2017).

Where two headings read alike, the source gives them in different places. Starred links: 1 amine or outer side, 2 acyl side, 3 side chain; linkers in the order of their positions; H or OH if unused. Non-standard residues stand in square brackets, D forms with d. Residues, ends and D or L forms follow the SMILES beside them. ξ: configuration not given here. NMe(dihydroBmt) = CCCC[C@@H](C)[C@@H](O)[C@H](NC)C(=O)O; MeBmt = C/C=C/C[C@@H](C)[C@@H](O)[C@H](NC)C(=O)O; X2 = CN([C@H](SCCCN1CCOCC1)C(=O)[*:2])[*:1]; NMeLeu(4-OMe) = CN[C@@H](CC(C)(C)OC)C(=O)O; X4 = CCN(CC)CCS[C@@H](C(=O)[*:2])N(C)[*:1]; X1 = CCN(CC)CCS[C@H](C(=O)[*:2])N(C)[*:1]; X5 = CC=CCC(C)C(O)C(C(=O)[*:2])N(C)[*:1]; X7 = C=CCOC(C)(C)CC(C(=O)[*:2])N(C)[*:1]; X6 = CN(C(SCCCN1CCOCC1)C(=O)[*:2])[*:1]; NMeIle(3ξ) = CCC(C)[C@H](NC)C(=O)O; NMeL = CN[CH](CC(C)C)C(=O)O; NMeV = CN[CH](C(=O)O)C(C)C; Abu = CC[CH](N)C(=O)O

This test concerns HCV replicon in Huh7 human hepatoma cell line ET (luc-ubi-neo/ET). The experiment in a line: HCV subgenomic replicon assay, luciferase end point, cell line ET (luc-ubi-neo/ET). It is filed as cell-based, Hepatitis C virus. The protocol: The anti-HCV activity of cyclosporine derivatives were evaluated in the HCV subgenomic replicon assay. The assay use the cell line ET (luc-ubi-neo/ET), which is a Huh7 human hepatoma cell line harboring an HCV replicon with a stable luciferase (Luc) reporter. HCV RNA replication was assessed by quantifying HCV replicon-derived luciferase activity. The antiviral activity of cyclosporine analogs were evaluated after drug treatment, the EC 50 and EC 90 were determined in subsequent assessments by using the luciferase end point (Krieger, N., et al., 2001, J. Virol. 75, 4614-4624; Pietschmann, T., et al., 2002, J. Virol. 76, 4008-4021; each of which is incorporated herein by reference).

[1] abbreviates: Hepatitis C virus, Huh-7, read-out: Antiviral activity IC50.
Setting [2] is: HCV replicon-derived luciferase activity, read-out: Antiviral activity IC50.

Regarding `C/C=C/C[C@@H](C)[C@@H](O)[C@H]1C(=O)N[C@@H](CC)C(=O)N(C)[C@H](SCCCN2CCOCC2)C(=O)N(C)[C@@H](CC(C)(C)O)C(=O)N[C@@H](C(C)C)C(=O)N(C)[C@@H](CC(C)C)C(=O)N[C@@H](C)C(=O)N[C@H](C)C(=O)N(C)[C@@H](CC(C)C)C(=O)N(C)[C@@H](CC(C)C)C(=O)N(C)[C@@H](C(C)C)C(=O)N1C` [Example 1, [(R)-3-(N-Morphlino)propylthio-Sar]-3-[(γ-Hydroxy)-NMeLeu]-4-cyclosporin], under setting [1], the IC50 came out at 40 nM.
Still for that read-out and setting: under `C/C=C/C[C@@H](C)[C@@H](O)[C@H]1C(=O)N[C@@H](CC)C(=O)N(C)[C@H](SCCCN(CC)CC)C(=O)N(C)[C@@H](CC(C)(C)O)C(=O)N[C@@H](C(C)C)C(=O)N(C)[C@@H](CC(C)C)C(=O)N[C@@H](C)C(=O)N[C@H](C)C(=O)N(C)[C@@H](CC(C)C)C(=O)N(C)[C@@H](CC(C)C)C(=O)N(C)[C@@H](C(C)C)C(=O)N1C` [Example 2, [(R)-3-(N,N-Diethylamino)propylthio-Sar]-3-[(γ-Hydroxy)-NMeLeu]-4-cyclosporin] stands 70 nM; under `CCCC[C@@H](C)[C@@H](O)[C@H]1C(=O)N[C@@H](CC)C(=O)N(C)[C@H](SCCCN2CCOCC2)C(=O)N(C)[C@@H](CC(C)(C)OC)C(=O)N[C@@H](C(C)C)C(=O)N(C)[C@@H](CC(C)C)C(=O)N[C@@H](C)C(=O)N[C@H](C)C(=O)N(C)[C@@H](CC(C)C)C(=O)N(C)[C@@H](CC(C)C)C(=O)N(C)[C@@H](C(C)C)C(=O)N1C` [Example 10, [(R)-3-(N-Morphlino)propylthio-Sar]-3-[(γ-Methoxy)-NMeLeu]-4-Dihydrocyclosporin] (cyclo(A[dA][NMeL][NMeL][NMeV][NMe(dihydroBmt)][Abu][X2][NMeLeu(4-OMe)]V[NMeL])), 90 nM; under `C/C=C/C[C@@H](C)[C@@H](O)[C@H]1C(=O)N[C@@H](CC)C(=O)N(C)[C@H](SCCCN2CCOCC2)C(=O)N(C)[C@@H](CC(C)(C)OC)C(=O)N[C@@H](C(C)C)C(=O)N(C)[C@@H](CC(C)C)C(=O)N[C@@H](C)C(=O)N[C@H](C)C(=O)N(C)[C@@H](CC(C)C)C(=O)N(C)[C@@H](CC(C)C)C(=O)N(C)[C@@H](C(C)C)C(=O)N1C` [Example 12, [(R)-3-(N-Morphlino)propylthio-Sar]-3-[(γ-Methoxy)-NMeLeu]-4-cyclosporin], 60 nM.
As to `C=CCOC(C)(C)CC1C(=O)NC(C(C)C)C(=O)N(C)C(CC(C)C)C(=O)NC(C)C(=O)NC(C)C(=O)N(C)C(CC(C)C)C(=O)N(C)C(CC(C)C)C(=O)N(C)C(C(C)C)C(=O)N(C)C(C(O)C(C)CC=CC)C(=O)NC(CC)C(=O)N(C)C(SCCCN2CCOCC2)C(=O)N1C` [Example 26, [(R)-3-(N-Morphlino)propylthio-Sar]-3-[(γ-Allyloxy)-NMeLeu]-4-cyclosporin] (cyclo([X5][Abu][X6][X7]V[NMeL]AA[NMeL][NMeL][NMeV]); configuration not given here), under setting [2], the half-maximal inhibitory concentration (IC50) was 80 nM.
In the case of `C/C=C/C[C@@H](C)[C@@H](O)[C@H]1C(=O)N[C@@H](CC)C(=O)N(C)CC(=O)N(C)[C@@H](C(C)C)C(=O)N[C@@H](C(C)C)C(=O)N(C)[C@@H](CC(C)C)C(=O)N[C@@H](C)C(=O)N[C@H](C)C(=O)N(C)[C@@H](CC(C)C)C(=O)N(C)[C@@H](CC(C)C)C(=O)N(C)[C@@H](C(C)C)C(=O)N1C` [SDZ-220-384, N-MeVal-4-Cyclosporin], the IC50 under setting [2] turned out to be 170 nM.
For `C/C=C/C[C@@H](C)[C@@H](O)[C@H]1C(=O)N[C@@H](CC)C(=O)N(C)CC(=O)N(C)[C@@H]([C@@H](C)CC)C(=O)N[C@@H](C(C)C)C(=O)N(C)[C@@H](CC(C)C)C(=O)N[C@@H](C)C(=O)N[C@H](C)C(=O)N(C)[C@@H](CC(C)C)C(=O)N(C)[C@@H](CC(C)C)C(=O)N(C)[C@@H](C(C)C)C(=O)N1C` [SDZ-NIM-811, N-MeIle-4-Cyclosporin], the half-inhibitory concentration (IC50) under setting [1] was determined as 150 nM.
Regarding `C/C=C/C[C@@H](C)[C@@H](O)[C@H]1C(=O)N[C@@H](CC)C(=O)N(C)[C@H](SCCN(CC)CC)C(=O)N(C)[C@@H](C(C)CC)C(=O)N[C@@H](C(C)C)C(=O)N(C)[C@@H](CC(C)C)C(=O)N[C@@H](C)C(=O)N[C@H](C)C(=O)N(C)[C@@H](CC(C)C)C(=O)N(C)[C@@H](CC(C)C)C(=O)N(C)[C@@H](C(C)C)C(=O)N1C` (stereo partly drawn) [[(R)-2-(N,N-Diethylamino)ethylthio-Sar]-3-[NMeIle]-4-cyclosporin] (cyclo(A[dA][NMeL][NMeL][NMeV][MeBmt][Abu][X1][NMeIle(3ξ)]V[NMeL])), under setting [1], the IC50 turned out to be 40 nM.
With `C/C=C/C[C@@H](C)[C@@H](O)[C@H]1C(=O)N[C@@H](CC)C(=O)N(C)[C@H](SCCN(CC)CC)C(=O)N(C)[C@@H](C(C)C)C(=O)N[C@@H](C(C)C)C(=O)N(C)[C@@H](CC(C)C)C(=O)N[C@@H](C)C(=O)N[C@H](C)C(=O)N(C)[C@@H](CC(C)C)C(=O)N(C)[C@@H](CC(C)C)C(=O)N(C)[C@@H](C(C)C)C(=O)N1C` [[(R)-2-(N,N-Diethylamino)ethylthio-Sar]-3-[NMeVal]-4-cyclosporin] (cyclo(A[dA][NMeL][NMeL][NMeV][MeBmt][Abu][X1][NMeV]V[NMeL])), the half-maximal inhibitory concentration (IC50) under setting [2] was found to be 40 nM.
`C/C=C/C[C@@H](C)[C@@H](O)[C@H]1C(=O)N[C@@H](CC)C(=O)N(C)[C@@H](SCCN(CC)CC)C(=O)N(C)[C@@H](C(C)C)C(=O)N[C@@H](C(C)C)C(=O)N(C)[C@@H](CC(C)C)C(=O)N[C@@H](C)C(=O)N[C@H](C)C(=O)N(C)[C@@H](CC(C)C)C(=O)N(C)[C@@H](CC(C)C)C(=O)N(C)[C@@H](C(C)C)C(=O)N1C` [[(S)-2-(N,N-Diethylamino)ethylthio-Sar]-3-[NMeVal]-4-cyclosporin] (cyclo(A[dA][NMeL][NMeL][NMeV][MeBmt][Abu][X4][NMeV]V[NMeL])): the half-maximal inhibitory concentration (IC50) under setting [2] stood at 3660 nM.
As to “[(S)-2-(N,N-Diethylamino)ethylthio-Sar]-3-[NMeIle]-4-cyclosporin”, the concentration for half-maximal inhibition (IC50) under setting [2] amounted to 1870 nM.
